Measured values as given in patent publication US5064826A, “Novel triazolo-pyrimidine derivatives” (priority 1989, dated 1991).

Legend:
[1] = Antidepressant activity shown against tetrabenazine ptosis (T.P.) after p.o. administration; assay type: in vivo; conditions: for ED50: po, read-out: T.P. ED50; for TI (therapeutic index), T.P.: tetrabenazine ptosis, p.o. administration, TI = therapeutic index = LD50 (so in the source)
Source text: (§1) Antidepressant activity of some of compounds of formulae Ia
(§2) and Ib shown against tetrabenazine ptosis (T.P.) and
(§3) analgesic activity in Writhing test (W.t.) after p.o. administration
TI = therapeutica1 index = LD50

[2] = Analgesic activity in Writhing test (W.t.) after p.o. administration; assay type: in vivo; conditions: for ED50: po, read-out: W.t. ED50
Source text: as §1, §2, §3
TI = therapeutica1 index = LD50

In the case of `CN(C)c1nc2[nH]c3c(c(=O)n2n1)SCCC3` [Example 19, 2-Dimethylamino-5,7,8,9-tetrahydrothiopyrano[3,2-d]-1,2,4-triazolo[1,5-a]pyrimidine-5(10H)-one], the ED50 [1] is reported as 2.7 mg/kg and the “TI (therapeutic index), T.P.” value [1] is reported as 748.

For `O=c1c2c([nH]c3nc(NC4CCCCC4)nn13)CCCS2` [Example 25, 2-Cyclohexylamino-5,7,8,9-tetrahydrothiopyrano[3,2-d]-1,2,4-triazolo[1,5-a]pyrimidine-5(10H)-one], the ED50 [1] was 22.5 mg/kg and the “TI (therapeutic index), T.P.” value [1] was 87.

With `O=c1c2c([nH]c3nc(N4CCOCC4)nn13)CCCS2` [Example 21, 2-Morpholino-5,7,8,9-tetrahydrothiopyrano[3,2-d]-1,2,4-triazolo[1,5-a]pyrimidine-5(10H)-one] the ED50 [1] was 5.2 mg/kg and the “TI (therapeutic index), T.P.” value [1] was 385.

With `CC(C)(C)Nc1nc2[nH]c3c(c(=O)n2n1)SCCC3` [Example 26, 2-t-Butylamino-5,7,8,9-tetrahydrothiopyrano[3,2-d]-1,2,4-triazolo[1,5-a]pyrimidine-5(10H)-one] the “TI (therapeutic index), W.t.” value ([2]; Writhing test, p.o. administration, TI = therapeutic index = LD50 (so in the source)) was 5.6 and the ED50 [2] was 355 mg/kg.

Molecule `CC(=O)Nc1ccc(O)cc1` [paracetamol, p(acetylamino)-phenol, reference compound] has an ED50 [2] of 421 mg/kg.

With `CN(C)CCC=C1c2ccccc2CCc2ccccc21` [amitriptyline, 5(3-dimethylaminopropylidene)dibenz/a,d/1,4-cycloheptadiene, reference compound] the ED50 [1] was 12 mg/kg and the “TI (therapeutic index), T.P.” value [1] was 19.
